According to ChEMBL document CHEMBL1130817, “Sulfonamide derivatives of benzylamine block cholesterol biosynthesis in HepG2 cells: a new type of potent squalene epoxidase inhibitors” (Bioorg Med Chem Lett, 1998):

What follows are molecules tested against Squalene monooxygenase (Homo sapiens, UniProt Q14534) (assay: In vitro inhibition of cholesterol biosynthesis in human HepG2 cells.).
Format: functional, cell-based

Sequence of Squalene monooxygenase (Homo sapiens, UniProt Q14534) (Q14534 whole entry): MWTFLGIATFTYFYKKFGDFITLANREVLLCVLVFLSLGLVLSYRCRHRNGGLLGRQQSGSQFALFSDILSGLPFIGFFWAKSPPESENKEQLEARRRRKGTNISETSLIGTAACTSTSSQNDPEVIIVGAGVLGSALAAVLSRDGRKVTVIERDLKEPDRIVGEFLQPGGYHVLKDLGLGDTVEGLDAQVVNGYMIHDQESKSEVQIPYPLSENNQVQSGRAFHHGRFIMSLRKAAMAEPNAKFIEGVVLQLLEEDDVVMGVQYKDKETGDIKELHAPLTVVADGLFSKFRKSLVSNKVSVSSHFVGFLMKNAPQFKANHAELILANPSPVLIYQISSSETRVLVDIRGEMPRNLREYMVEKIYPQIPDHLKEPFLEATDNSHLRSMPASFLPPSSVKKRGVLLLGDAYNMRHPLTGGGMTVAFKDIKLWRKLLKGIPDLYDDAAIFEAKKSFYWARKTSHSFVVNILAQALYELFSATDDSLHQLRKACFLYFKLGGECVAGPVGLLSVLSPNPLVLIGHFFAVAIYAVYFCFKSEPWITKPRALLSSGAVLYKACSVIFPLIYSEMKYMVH

Structure (SMILES)	IC50 [µM]
CCN(C/C=C/C#CC(C)(C)C)Cc1cccc(OCCN(C)S(=O)(=O)c2ccc(Br)s2)c1	0.39
CCN(C/C=C/C#CC(C)(C)C)Cc1cccc(OCCN(C)S(=O)(=O)c2cccnc2)c1	0.15
CCN(C/C=C/C#CC(C)(C)C)Cc1cccc(OCCN(C)S(=O)(=O)c2cc3ccccc3s2)c1	1.8
CCN(C/C=C/C#CC(C)(C)C)Cc1cccc(OCCN(C)S(=O)(=O)c2cc(Br)cs2)c1	0.3
CCN(C/C=C/C#CC(C)(C)C)Cc1cccc(OCCN(C2CC2)S(=O)(=O)c2cccs2)c1	0.23
CCN(C/C=C/C#CC(C)(C)C)Cc1cccc(OCCN(C)S(=O)(=O)c2ccsc2)c1	0.25
CCN(C/C=C/C#CC(C)(C)C)Cc1cccc(OCCN(C)S(=O)(=O)c2ccc(-c3cccs3)s2)c1	10
CCN(C/C=C/C#CC(C)(C)C)Cc1cccc(OCCN(C)S(=O)(=O)c2cc(-c3ccsc3)cs2)c1	0.09
CCN(C/C=C/C#CC(C)(C)C)Cc1cccc(OCCNS(=O)(=O)c2cccs2)c1	0.45
CCN(C/C=C/C#CC(C)(C)C)Cc1cccc(OCCN(C)S(=O)(=O)c2cccs2)c1	0.06

Now from value to molecule:

IC50 [µM]	Structure (SMILES)
6.4	CCN(C/C=C/C#CC(C)(C)C)Cc1cccc(OCCCN(C)S(=O)(=O)c2cccs2)c1
0.33	CCN(C/C=C/C#CC(C)(C)C)Cc1cccc(OCCN(C)S(=O)(=O)c2ccc(Br)cc2)c1
0.29	CCN(C/C=C/C#CC(C)(C)C)Cc1cccc(OCCCS(=O)(=O)c2cccs2)c1
0.255	CCN(C/C=C/C#CC(C)(C)C)Cc1cccc(OCCN(C)S(=O)(=O)c2ccc(F)cc2)c1
0.21	CCN(C/C=C/C#CC(C)(C)C)Cc1cccc(OCCN(C)S(=O)(=O)c2ccc(-c3ccsc3)s2)c1
0.2	CCN(C/C=C/C#CC(C)(C)C)Cc1cccc(OCCN(C)S(=O)(=O)c2ccc(C#N)cc2)c1
0.2	CCN(C/C=C/C#CC(C)(C)C)Cc1cccc(OCCN(C)S(=O)(=O)Cc2cccs2)c1
0.17	CCN(C/C=C/C#CC(C)(C)C)Cc1cccc(OCCN(C)S(=O)(=O)c2nccs2)c1
0.17	CCCN(CCOc1cccc(CN(CC)C/C=C/C#CC(C)(C)C)c1)S(=O)(=O)c1cccs1
0.09	CCN(C/C=C/C#CC(C)(C)C)Cc1cccc(OCCN(CC)S(=O)(=O)c2cccs2)c1

The molecules below were run against Squalene monooxygenase (Rattus norvegicus) (UniProt P52020) (assay: Compound was evaluated in vivo for the inhibition of rat mammalian squalene epoxidase […]).
Sequence of Squalene monooxygenase (Rattus norvegicus) (P52020 whole entry, looked up): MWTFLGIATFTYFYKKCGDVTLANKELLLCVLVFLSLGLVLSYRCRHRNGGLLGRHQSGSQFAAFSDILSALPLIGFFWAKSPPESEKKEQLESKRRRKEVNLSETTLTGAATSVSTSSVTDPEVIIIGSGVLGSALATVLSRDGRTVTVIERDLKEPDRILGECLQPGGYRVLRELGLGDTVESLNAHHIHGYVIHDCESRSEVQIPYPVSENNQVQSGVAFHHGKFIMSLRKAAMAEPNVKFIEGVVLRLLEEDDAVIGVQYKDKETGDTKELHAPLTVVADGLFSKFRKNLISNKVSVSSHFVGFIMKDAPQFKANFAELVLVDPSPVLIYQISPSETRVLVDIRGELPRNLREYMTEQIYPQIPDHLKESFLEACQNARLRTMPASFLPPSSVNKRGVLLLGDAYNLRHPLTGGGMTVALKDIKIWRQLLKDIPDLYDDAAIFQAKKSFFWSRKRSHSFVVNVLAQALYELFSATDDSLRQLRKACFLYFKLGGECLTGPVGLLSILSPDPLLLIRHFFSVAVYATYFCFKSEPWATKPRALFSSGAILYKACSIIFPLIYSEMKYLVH
Format: organism-based

ED50 [mg/kg]	Structure (SMILES)
2.5	CCN(C/C=C/C#CC(C)(C)C)Cc1cccc(OCc2cc(-c3ccsc3)cs2)c1

Each molecule was assayed against Squalene monooxygenase (Rattus norvegicus) (UniProt P52020) (assay: Compound was evaluated in vivo for the inhibition of rat squalene epoxidase […]; Inactive).
Format: organism-based

ED50 [mg/kg]	Structure (SMILES)
40	CCN(C/C=C/C#CC(C)(C)C)Cc1cccc(OCCN(C)S(=O)(=O)c2cccs2)c1

Each molecule was assayed against Squalene monooxygenase (Rattus norvegicus, UniProt P52020) (assay: In vitro inhibition of rat liver squalene epoxidase […]).
Sequence of Squalene monooxygenase (Rattus norvegicus, UniProt P52020) (P52020 whole entry): as the sequence (P52020 whole entry, looked up) above
Format: cell-based

IC50 [µM]	Structure (SMILES)
6	CCN(C/C=C/C#CC(C)(C)C)Cc1cccc(OCCN(C)S(=O)(=O)c2cccs2)c1
